Assay results taken from patent US20220193301A1, “CELL SUSPENSION AND USE THEREOF” (AVITA Medical, Inc., priority 2012, published 2022).

Tested on: Primary Epidermal Keratinocytes (PEK), Normal, Human, Adult
Assay: In vitro Scratch Assay of keratinocytes (with and without mitomycin c)
Assay type: cell-based
Details: media/control group, no hydrogel
Description: 1. Maintain stock cultures of Primary Epidermal Keratinocytes (PEK), Normal, Human, Adult cells in Dermal Cell Basal Medium supplemented with Keratinocyte Growth Kit and Gentamicin-Amphotericin B Solution (Complete Medium). Subculture the stock cultures of cells to 2.5×10^4 cells/ml (estimate) and re-feed with complete medium every 2 days or when a density of near confluence is reached. 2. To each well of a 24 well plate add appropriate test substances. Row A, Columns 1-3: blank, no cells, medium only. Row B, Columns 1-3: baseline, cells only, no coating. Row C-D, Columns 1-3 and Rows A-D, Columns 4-6: test substances at determined previously, in a serial dilution series as necessary. 3. Harvest cells and wash the PEK cells in Media by centrifugation at 150×g for 3 to5 minutes. 4. Determine cell number and viability (by trypan blue exclusion), and suspend the cells to a final concentration of 5×10^4 cells/ml in Media. 5. Dispense 600 μl of the cell suspension (30,000 cells) into all wells of the plate prepared in Step 2. 6. […]
In vitro Scratch Assay was performed according to the above protocol. […] In vitro re-epithelialization was documented by photography, and the amount of migration was manually quantified by computer-assisted image analysis. The data was expressed as a percentage of the area of the scratch filled by keratinocytes (FIG. 7). […]

CO[C@@]12[C@H](COC(N)=O)C3=C(C(=O)C(C)=C(N)C3=O)N1C[C@@H]1N[C@@H]12 [MMC, mitomycin c] was tested, and the “healing of the scratch, MMC+ cells compared to MMC− cells” value was “delayed healing”.
